Source: PMC8391236, “Effect of Pterostilbene, a Natural Derivative of Resveratrol, in the Treatment of Colorectal Cancer through Top1/Tdp1-Mediated DNA Repair Pathway” (Cancers, 2021)

What was measured:
siRNA-Tdp1 CL187 cells = assay: Cell viability of Tdp1-silenced cells; format: cell-based, Human; settings: siRNA-Tdp1 CL187, CPT 0.5 μM; for sensitivity / efficacy of positive controls: FM 25 μM
Protocol: (§1) PTE or RE were dissolved in DMSO and diluted with culture medium to 1–100 μM. The final concentration of DMSO was less than 0.1%, and 0.1% DMSO as negative control. […] Exponentially growing cells were seeded in 96-well plates (5 × 10^3 cells/well) for 12 h. Various drugs were added separately and incubated for 24, 48, and 72 h. Cell viability was determined by CCK-8 (Beyotime Biotechnology, Shanghai, China) assay.

siRNA-Top1 CL187 cells = assay: Cell viability of Top1-silenced cells; format: cell-based, Human; settings: siRNA-Top1 CL187; CPT 0.5 μM, FM 25 μM
Protocol: as §1

Top1 = target: T1, Top1 (Homo sapiens, UniProt P11387); assay: Direct Top1 enzyme activity (DNA relaxation) assay; format: biochemical; settings: gel electrophoresis
T1 construct: purchased TopoGEN, Buena Vista, CO, USA
T1 sequence (P11387 1-765): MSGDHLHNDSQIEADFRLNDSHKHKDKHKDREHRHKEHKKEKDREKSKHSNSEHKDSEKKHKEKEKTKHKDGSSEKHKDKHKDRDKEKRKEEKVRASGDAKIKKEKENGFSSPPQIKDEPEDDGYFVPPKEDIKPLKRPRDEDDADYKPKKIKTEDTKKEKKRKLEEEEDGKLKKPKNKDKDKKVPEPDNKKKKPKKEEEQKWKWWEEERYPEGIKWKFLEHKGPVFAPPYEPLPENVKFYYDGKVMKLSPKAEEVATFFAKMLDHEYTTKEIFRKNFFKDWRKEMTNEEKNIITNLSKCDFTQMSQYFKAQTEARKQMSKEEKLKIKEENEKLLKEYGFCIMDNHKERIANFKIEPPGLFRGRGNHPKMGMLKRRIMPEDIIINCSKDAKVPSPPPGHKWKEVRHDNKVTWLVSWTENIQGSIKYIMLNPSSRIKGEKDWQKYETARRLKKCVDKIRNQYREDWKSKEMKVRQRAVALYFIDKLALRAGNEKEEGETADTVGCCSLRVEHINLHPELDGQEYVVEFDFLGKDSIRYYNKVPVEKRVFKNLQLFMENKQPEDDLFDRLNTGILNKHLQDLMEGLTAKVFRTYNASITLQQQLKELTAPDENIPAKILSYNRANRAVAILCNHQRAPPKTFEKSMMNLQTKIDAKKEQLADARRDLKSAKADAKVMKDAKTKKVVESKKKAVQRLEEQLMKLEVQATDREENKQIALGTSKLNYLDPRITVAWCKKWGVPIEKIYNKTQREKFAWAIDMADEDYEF
Protocol: Different concentrations of the drug solution were prepared. The solvent was used as negative control group, and CPT (50 μM) was used as the positive control group. Each sample included 2 units of Top1 (TopoGEN, Buena Vista, CO, USA) and 250 ng super helical DNA (pHOT-1, TopoGEN, Buena Vista, CO, USA). The samples were incubated for 30 min at 37 °C, and then the reaction was stopped with SDS. After digestion with proteinase K (50 μg/mL, 60 min at 37 °C), samples were separated through electrophoresis (1% agarose gel). The electrophoresis was conducted at 180 V constant pressure for 20 min. The gel was immersed in the dye without EB for 30 min, and the images were collected by gel imaging system (Tanon-1600B, Shanghai, China).

Top1 in CL187 cells [1] = assay: Intracellular Top1 enzyme activity assay; format: cell-based, Human; settings: CL187 cells treated 6 h
Protocol: (§2) CL187 cells were treated with different concentrations of drugs for 6 h. The supernatant was discarded, and the cells were collected. The extracts of cytoplasm, mitochondria, and nucleus were obtained by the same method as described in Section 2.4.7. The protein concentration of each extract was detected by BCA kit. Enzyme activity reaction was carried out by using 125 ng super helical DNA (pHOT-1) and cell extract. The protein concentration of the extract was guaranteed to be the same in each group. The mixture solution of the pHOT-1 and the cell extract was added into the reaction buffer and incubated for 30 min at 37 °C. The reaction was terminated with loading buffer. The agarose gel electrophoresis was performed, and the images were collected.

Top1 in CL187 cells [2] = target: Top1 in CL187 cells (Homo sapiens, UniProt P11387); assay: Intracellular Top1 enzyme activity assay; format: cell-based; design: endogenous in cells; host or cells: CL187 cells (nuclear, mitochondrial and cytoplasmic extracts); settings: CL187 cells treated 6 h; CPT at 50 μM
Protocol: as §2

Tdp1-over CL187 cells = assay: Cell viability of Tdp1-overexpressing cells; format: cell-based, Human; settings: Tdp1-over CL187; CPT 0.5 μM, FM 25 μM
Protocol: CL187 cells were cultured on 6-cm dishes at 37 °C for 24 h. The plasmid (2.5 μg) was diluted with 125 μL serum-free medium Opti-MEM, mixed gently, and incubated at room temperature for 5 min. Lipo 3000 (Invitrogen, Waltham, MA, USA) were diluted with 125 μL serum-free medium Opti-MEM, mixed and incubated for 5 min. Mixed the plasmid and Lipo 3000, incubated at room temperature for 20 min, the mixture was added to CL187 cells, the Tdp1 overexpressed plasmid were transfected into CL187 cells.
PTE or RE were dissolved in DMSO and diluted with culture medium to 1–100 μM. The final concentration of DMSO was less than 0.1%, and 0.1% DMSO as negative control. CPT, as Top1 inhibitor, was diluted to 0.5 μM [36, 37], and FM, as Tdp1 inhibitor was diluted to 25 μM [38]. Exponentially growing cells were seeded in 96-well plates (5 × 10^3 cells/well) for 12 h. […] Cell viability was determined by CCK-8 (Beyotime Biotechnology, Shanghai, China) assay. Cell viability and inhibition rate were calculated with the following formulae:Cell viability (%) = [OD450 (sample)/OD450 (control)] × 100(1) Inhibition rate (%) = […] − cell viability (%)(2)
The drug concentration required for inhibiting cell proliferation by 50% (IC50) was determined by interpolation from dose-response curves.

[3] = system: orthotopic CL187 xenograft; assay: Orthotopic CL187 xenograft model; format: in vivo, BABLc/nude mice
Protocol: (§3) The mice were anaesthetized with 10% chloral hydrate and fixed on the operating table. After the abdomen of the mice was disinfected with iodine, a small section of the large intestine was squeezed out of the surgical opening. The 0.1 mL (per mouse) CL187 cell suspension (1 × 10^7 /mL) was inoculated into the colon wall of nude mice. After the inoculation, the large intestine was placed into the mouse abdominal cavity. After the wound was sutured, the mice were put into cages until they naturally woke up. After 10 days of inoculation, the animals were randomly divided into 4 groups (6 mice per group). Vector control group was intraperitoneally injected with 5% DMSO and 95% saline containing 30% HP-β-CD (i.p.). The drug dosage was designed according to the results of the previous pharmacokinetic experiment. Experimental Group 1 was intraperitoneal injected (i.p.) with PTE 100 mg/kg, and experiment Group 2 was intragastric administrated (i.g.) with PTE 500 mg/kg, once a day. The bioavailability of PTE was the same in the animals in the above regimens. Positive control group was injected with irinotecan, 20 mg/kg, twice a week. During the experiment, the changes of body weight of nude mice were recorded. After 21 days, the nude mice were sacrificed, the tumor blocks were removed surgically, weighed, and recorded.
Tumor and organ tissues were paraffin-embedded and sectioned into […] after being fixed in 4% of paraformaldehyde solution for 24 h. The sections were deparaffinized and rehydrated before detection. For histological observation, tumor sections were stained with hematoxylin and eosin (HE), and then observed by an inverted microscopy (Olympus, Japan).
For immunohistochemistry analysis, the sections were treated with 3% hydrogen peroxide for 10 min to block endogenous peroxidase, and then incubated with Ki67 primary antibody for overnight at 4 °C. Subsequently, the sections were treated with secondary antibody at room temperature for 20 min. After being washed with PBS, the sections were incubated with DAB chromogenic solution for 10 min, followed by rewashing in PBS. The sections were counterstained with hematoxylin after DAB coloration. The antibody specificity was confirmed by negative control without primary antibody treatment. Immunopositive areas were observed by an inverted microscope (Olympus, Japan).

[4] = system: liver, kidney, lung, and paracancerous colon tissues; assay: HE staining of organs of orthotopic xenograft mice; format: in vivo; settings: orthotopic xenograft nude mice
Protocol: as §3, with “and recorded. Tumor and organ tissues were paraffin-embedded and sectioned into […] after being fixed in 4% of paraformaldehyde solution for 24 h. The sections were deparaffinized and rehydrated before detection. For histological observation, tumor sections were stained with hematoxylin and eosin (HE), and then observed by an inverted microscopy (Olympus, Japan).” for “and recorded.”

[5] = system: subcutaneous CL187 xenograft; assay: Subcutaneous CL187 xenograft model; format: in vivo, BABLc/nude mice
Protocol: CL187 cell suspension was collected at 1 × 10^6 /mL, and 0.1 mL cell was inoculated into the right inguinal region of nude mice. The tumor was no metastasis. The diameter of the transplanted tumor in nude mice was measured with a vernier caliper. After 16-day inoculation (the tumor grew to 90 mm^3), the animals were randomly divided into 7 groups (6 mice per group). The drug was administered by intraperitoneal injection. Blank control group was injected with saline. […] According to the preliminary test results. […] Positive control group was injected with irinotecan (20 mg/kg) twice a week, During the experiment, the changes of body weight of nude mice were recorded, and the anti-tumor effect of the samples was dynamically investigated by measuring tumor diameter. On Day 31 post treatment, the nude mice were sacrificed, and the tumor blocks were removed surgically, weighed, and recorded.

[6] = 20 mg/kg-i.p. twice a week, 21 days

Row | Structure (SMILES) | inhibition at 0.5 µM (siRNA-Tdp1 CL187 cells; Homo sapiens, read-out: cell inhibition rate) [%] | sensitivity / efficacy of positive controls (siRNA-Tdp1 CL187 cells) | inhibitory effect on cell proliferation of positive controls (siRNA-Top1 CL187 cells) | inhibition of Top1 enzyme activity (SC DNA relaxation) (Top1; 30 min incubation, CPT at 50 uM) | concentration exhibiting the same inhibitory effect on Top1 enzyme activity (Top1; relaxation of supercoiled pHOT-1 DNA, 30 min) [µM] | concentration with the same inhibitory effect on intracellular Top1 enzyme activity (Top1 in CL187 cells [1]; cell extracts + SC DNA) [µM] | Top1 enzyme activity in mitochondria (Top1 in CL187 cells [1]; CPT at 50 μM) | Top1 enzyme activity in the nucleus (Top1 in CL187 cells [2]) | sensitivity / response of cells to positive controls (Tdp1-over CL187 cells) | degree of tumor necrosis (HE) ([3]; 20 mg/kg-i.p.) | Tumor Inhibitory Rate [3, 6] [%] | Tumor Weight [3, 6] [g] | Ki67 labeling rate in tumor tissue ([3]; 20 mg/kg-i.p., vector control 46.53±3.86%) [%] | effect on lung inflammation (HE sections) [4] | Tumor Weight ([5]; 20 mg/kg i.p. twice a week, Day 31) [g] | adverse reactions during the entire treatment process ([5]; subcutaneous CL187 xenograft nude mice, CPT-11 20 mg/kg, PTE 25-200 mg/kg i.p.)
1 | CC[C@@]1(O)C(=O)OCc2c1cc1n(c2=O)Cc2cc3ccccc3nc2-1 [CPT, camptothecin, reference compound] | ~90 | significantly increased | hardly exhibited inhibitory effect on cell proliferation | could inhibit Top1 enzyme activity | 50 | 50 | significantly inhibited | significantly inhibited | significantly reduced |  |  |  |  |  |  | 
2 | CCc1c2c(nc3ccc(OC(=O)N4CCC(N5CCCCC5)CC4)cc13)-c1cc3c(c(=O)n1C2)COC(=O)[C@]3(O)CC [CPT-11, irinotecan] |  |  |  |  |  |  |  |  |  | +++ (+++ denotes the ratio between 1/2 and 3/4) | 62.91 ± 11.78 | 0.81 ± 0.20 | 22.46 ± 6.78 | could aggravate the inflammatory response | 1.18 ± 0.12 | severe diarrhea, lassitude, and other adverse reactions
3 | Cl.Cl.N=C(N)c1ccc(-c2ccc(-c3ccc(C(=N)N)cc3)o2)cc1 [FM, Furamidine dihydrochloride, reference compound] |  | failed to exert its efficacy | significantly enhancing the inhibitory effect on the cells |  |  |  |  |  | good response |  |  |  |  |  |  | 
